Assay results from PubChem BioAssay (NCI).
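Cultured in 96-well plates, cells were exposed to test compound for 48 hours across five concentrations. TGI marks complete inhibition of growth.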

How the values were obtained:
Experiment in all cases: NCI-60 cell line screen, 48 h
MDA-MB-231 breast = tested on: MDA-MB-231 breast
OVCAR-8 ovarian = tested on: OVCAR-8 ovarian
UO-31 renal = tested on: UO-31 renal
SF-268 CNS = tested on: SF-268 CNS
NCI/ADR-RES ovarian = tested on: NCI/ADR-RES ovarian
SK-MEL-2 melanoma = tested on: SK-MEL-2 melanoma
T-47D breast = tested on: T-47D breast
OVCAR-3 ovarian = tested on: OVCAR-3 ovarian
786-0 renal = tested on: 786-0 renal
OVCAR-4 ovarian = tested on: OVCAR-4 ovarian
MALME-3M melanoma = tested on: MALME-3M melanoma
OVCAR-5 ovarian = tested on: OVCAR-5 ovarian
PC-3 prostate = tested on: PC-3 prostate
SK-MEL-28 melanoma = tested on: SK-MEL-28 melanoma
SK-OV-3 ovarian = tested on: SK-OV-3 ovarian
ACHN renal = tested on: ACHN renal
NCI-H23 lung = tested on: NCI-H23 lung
TK-10 renal = tested on: TK-10 renal
HOP-92 NSCLC = tested on: HOP-92 NSCLC

Row | SMILES | TGI (MDA-MB-231 breast) [µM] | TGI (OVCAR-8 ovarian) [µM] | TGI (UO-31 renal) [µM] | TGI (SF-268 CNS) [µM] | TGI (NCI/ADR-RES ovarian) [µM] | TGI (SK-MEL-2 melanoma) [µM] | TGI (T-47D breast) [µM] | TGI (OVCAR-3 ovarian) [µM] | TGI (786-0 renal) [µM] | TGI (OVCAR-4 ovarian) [µM] | TGI (MALME-3M melanoma) [µM] | TGI (OVCAR-5 ovarian) [µM] | TGI (PC-3 prostate) [µM] | TGI (SK-MEL-28 melanoma) [µM] | TGI (SK-OV-3 ovarian) [µM] | TGI (ACHN renal) [µM] | TGI (NCI-H23 lung) [µM] | TGI (TK-10 renal) [µM] | TGI (HOP-92 NSCLC) [µM]
1 | COC(=O)CCC1=NCC(C)(C)O1 | > 10 | > 10 | > 10 | > 10 | > 10 | > 10 | > 10 | > 10 | > 10 | > 10 | > 10 | > 10 | > 10 | > 10 | > 10 | > 10 | > 10 | > 10 | –
2 | O=C1C2=Cc3ccccc3OC2(O)Oc2ccccc21 (stereo not drawn) | > 100 | > 100 | – | > 100 | > 100 | > 100 | > 100 | > 100 | > 100 | > 100 | > 100 | > 100 | > 100 | > 100 | > 100 | – | > 100 | > 100 | > 100
3 | COc1cc2cc(C(=O)N3CC(CCl)c4ccc([N+](C)(C)Cc5ccc([N+](=O)[O-])cc5)cc43)[nH]c2c(OC)c1OC (stereo not drawn) | 46.6 | 4.69 | – | 56.7 | 4.17 | 5.26 | 66.2 | 7.16 | 6.54 | 13.6 | 7.42 | > 100 | 16.3 | 26.5 | 9.64 | 7.12 | 3.52 | – | 6.58
4 | O=C1CCC(=O)N1CNc1ccc2c(c1)S(=O)(=O)c1ccccc1O2 | > 100 | > 100 | > 100 | > 100 | > 100 | > 100 | > 100 | > 100 | > 100 | > 100 | > 100 | > 100 | > 100 | > 100 | – | > 100 | > 100 | > 100 | > 100
5 | CNCCN[C@@H]1c2cc3c(cc2[C@@H](c2cc(OC)c(O)c(OC)c2)[C@H]2C(=O)OC[C@@H]21)OCO3 | 2.71 | 2.22 | 4.96 | > 25.6 | > 100 | 1.79 | 2.6 | 4.17 | 0.487 | > 100 | 1.83 | 4.63 | > 41 | 3.31 | 1.52 | 1.04 | 1.54 | 8.21 | –
6 | COC(=O)c1cc(OS(=O)(=O)C(F)(F)F)c(=O)n2c1CCCC2 | > 100 | > 100 | > 100 | > 100 | > 100 | > 100 | > 100 | – | > 100 | > 100 | > 100 | > 100 | > 100 | > 100 | > 100 | > 100 | > 100 | > 100 | –
7 | CC(C)(C)c1cc2c(c(C(C)(C)C)c1O)CC(=O)O2 | 75.4 | > 100 | 66.6 | > 100 | 54.7 | 47.7 | 64.7 | 50.7 | 94.1 | > 100 | – | > 100 | 76.1 | > 100 | > 100 | 55.5 | 59.3 | > 100 | 17.9
8 | COc1cccc2c1C1(O)C2CCCCCCCCCC12OCCCO2 (stereo not drawn) | > 100 | > 100 | > 100 | > 100 | > 100 | > 73.2 | > 100 | > 81 | > 100 | > 100 | > 100 | > 100 | > 100 | > 100 | > 100 | > 100 | > 100 | > 100 | –
9 | C=C1[C@H]2O[C@H]2[C@@H](OC(C)=O)[C@@]2(C)[C@@H](OC(C)=O)C[C@@H](OC(=O)CCC)[C@@](C)(O)[C@@H]2[C@@H](OC(C)=O)[C@]2(O)[C@@H](C)C(=O)O[C@H]2[C@H]1Cl | > 100 | > 100 | > 100 | > 100 | > 100 | > 100 | > 100 | > 100 | > 100 | > 100 | > 100 | > 100 | > 100 | > 100 | – | > 100 | > 100 | > 100 | > 100
10 | Cc1c[nH]c(C(=O)O)c1-c1cccn1-c1ccc(Cl)cc1[N+](=O)[O-] | > 100 | > 100 | > 100 | > 100 | > 100 | > 100 | > 100 | > 100 | > 100 | > 100 | – | > 100 | > 100 | > 100 | > 100 | > 100 | > 100 | > 100 | > 100
11 | Cn1c2c(c3ccccc31)CCN=C2C1CCCOC1=O (stereo not drawn) | > 100 | > 100 | > 100 | > 100 | > 100 | > 100 | > 100 | > 100 | > 100 | > 100 | > 100 | > 100 | > 100 | > 100 | – | > 100 | – | > 100 | > 100
12 | Cn1nc2ccc([N+](=O)[O-])cc2[n+]1[O-] | > 100 | > 100 | > 100 | – | > 100 | > 100 | > 100 | > 100 | > 100 | > 100 | > 100 | > 100 | > 100 | – | > 100 | > 100 | > 100 | > 100 | –
13 | CCOC(=O)c1nc2ccccc2nc1NCc1ccc(OC)c(OC)c1 | > 100 | > 100 | > 100 | > 100 | > 100 | – | > 100 | > 100 | > 100 | > 100 | > 100 | > 100 | > 100 | > 100 | > 100 | > 100 | > 100 | > 100 | > 100
